{"source": "patent US20240148821A1", "about": "“PHARMACEUTICAL USE OF CYCLIC PEPTIDE COMPOUND” (CHUGAI SEIYAKU KABUSHIKI KAISHA, priority 2021, published 2024)", "note": "Numbered stars: 1 amine (or outer) side, 2 acyl side, 3 side chain; on linkers, the order of the positions; unused ones are H or OH. Bridge positions count the residues as written; N and C are the ends. Square brackets hold non-standard residues; d marks the D form. Peptide text beside a SMILES is read from it. * marks the point of attachment. hPhe(3-Cl-4-CF3) = N[C@@H](CCc1ccc(C(F)(F)F)c(Cl)c1)C(=O)O; X115 = O=C([C@H](CCc1ccc(S(F)(F)(F)(F)F)cc1)N[*:1])[*:2]; hPhe(3-F,4-CF3) = N[C@@H](CCc1ccc(C(F)(F)F)c(F)c1)C(=O)O; 3Oxa8azabicyclo(3.2.1)octane = C1CC2COCC1N2*; NMePhe(4-Me) = CN[C@@H](Cc1ccc(C)cc1)C(=O)O; NMePhe(2-F) = CN[C@@H](Cc1ccccc1F)C(=O)O; NMeGly(cPent) = CN[C@H](C(=O)O)C1CCCC1; Phe(3-I) = N[C@@H](Cc1cccc(I)c1)C(=O)O; NMeCha = CN[C@@H](CC1CCCCC1)C(=O)O; NEtLeu = CCN[C@@H](CC(C)C)C(=O)O; NMeChg = CN[C@H](C(=O)O)C1CCCCC1; NMeD = CN[C@@H](CC(=O)O)C(=O)O; NMeL = CN[C@@H](CC(C)C)C(=O)O; NMeV = CN[C@H](C(=O)O)C(C)C; Trifluoroethyl = FC(F)(F)C*; d(β3hA) = C[C@@H](N)CC(=O)O; NMeA = CN[C@@H](C)C(=O)O; NMeAib = CNC(C)(C)C(=O)O; Piperidide = C1CCN(*)CC1; Ac5c = NC1(C(=O)O)CCCC1; Aze = O=C(O)[C@@H]1CCN1; NPrGly = CCCNCC(=O)O; Sar = CNCC(=O)O", "data": [{"tested_on": "Human pancreatic cancer cell line AsPC-1 (G12D mutation Kras)", "assay": "AsPC-1 cell growth inhibition (AsPC-1 CGI)", "type": "cell-based", "details": "read-out: AsPC-1 cell growth inhibition, 50% growth inhibitory concentration (IC50 value); 96 hours, CellTiter-Glo, values classified in ranges", "units": {"IC50": "nM"}, "procedure": "Test compounds were serially dilated with dimethyl sulfoxide, and 200 nL was then dispensed to a U-bottom 96-well plate using Labcyte Echo. […] The cell suspension was dispensed to a. plate containing a test compound at 100 μL per well and incubated at 37° C. in a 5% carbon dioxide gas incubator. 96 hours later, 80 μL of CellTiter-Glo (Promega) was added to each well and fluorescence was measured.", "values": [{"smiles": "CC[C@H](C)[C@@H]1NC(=O)[C@H](CC(C)C)N(C)C(=O)C[C@@H](C(=O)N(C)C)N(C)C(=O)[C@H](C2CCCC2)N(C)C(=O)C2(CCCC2)NC(=O)[C@H](Cc2ccccc2F)N(C)C(=O)[C@H](CCc2ccc(C(F)(F)F)c(Cl)c2)NC(=O)CN(C)C(=O)[C@H](CC2CCCCC2)N(C)C(=O)[C@@H]2CCN2C(=O)[C@H](C)N(C)C1=O", "note": "[Compound 43] ([NMeL]I[NMeA][Aze][NMeCha][Sar][hPhe(3-Cl-4-CF3)][NMePhe(2-F)][Ac5c][NMeGly(cPent)][NMeD]-NMe2; lactam N-11)", "IC50": "> 500"}, {"smiles": "CC[C@H](C)[C@@H]1NC(=O)[C@H](CC(C)C)N(C)C(=O)C[C@@H](C(=O)N2CCCCC2)N(C)C(=O)[C@H](CC(C)C)NC(=O)C(C)(C)N(C)C(=O)[C@H](Cc2ccc(OC)cc2)NC(=O)[C@H](Cc2cccc(I)c2)NC(=O)CN(C)C(=O)[C@H](CC2CCCCC2)N(C)C(=O)CN(C)C(=O)CN(C)C1=O", "note": "[Compound 320] ([NMeL]I[Sar][Sar][NMeCha][Sar][Phe(3-I)]Y(Me)[NMeAib]L[NMeD]-Piperidide; lactam N-11)", "IC50": "> 500"}, {"smiles": "CC(C)C[C@H]1C(=O)N[C@@H](COCC(F)(F)F)C(=O)N(C)CC(=O)N(C)CC(=O)N(C)[C@@H](CC2CCCCC2)C(=O)N(C)CC(=O)N[C@@H](CCc2ccc(C(F)(F)F)c(Cl)c2)C(=O)N2CCC[C@H]2C(=O)NC2(CCCC2)C(=O)N(C)[C@@H](C2CCCCC2)C(=O)N(C)[C@H](C(=O)N2CCCCC2)CC(=O)N1C", "note": "[Compound 894] ([NMeL]S(Trifluoroethyl)[Sar][Sar][NMeCha][Sar][hPhe(3-Cl-4-CF3)]P[Ac5c][NMeChg][NMeD]-Piperidide; lactam N-11)", "IC50": "> 500"}, {"smiles": "CC[C@H](C)[C@@H]1NC(=O)[C@H](CC(C)C)N(C)C(=O)C[C@@H](C(=O)N(C)C)N(C)C(=O)[C@H](C2CCCC2)N(C)C(=O)C2(CCCC2)NC(=O)[C@@H]2CCCN2C(=O)[C@H](CCc2ccc(C(F)(F)F)c(Cl)c2)NC(=O)CN(C)C(=O)[C@H](CC2CCCCC2)N(C)C(=O)CN(C)C(=O)CN(C)C1=O", "note": "[Compound 1659] ([NMeL]I[Sar][Sar][NMeCha][Sar][hPhe(3-Cl-4-CF3)]P[Ac5c][NMeGly(cPent)][NMeD]-NMe2; lactam N-11)", "IC50": "≤ 20"}, {"smiles": "CCCN1CC(=O)N(C)[C@@H](CC2CCCCC2)C(=O)N(C)CC(=O)N[C@@H](CCc2ccc(C(F)(F)F)c(Cl)c2)C(=O)N2CCC[C@H]2C(=O)NC2(CCCC2)C(=O)N(C)[C@@H](C(C)C)C(=O)N[C@H](C)CC(=O)N(C)[C@@H](CC(C)C)C(=O)N[C@@H]([C@@H](C)CC)C(=O)N(C)CC1=O", "note": "[Compound 405] (cyclo([Ac5c][NMeV][d(β3hA)][NMeL]I[Sar][NPrGly][NMeCha][Sar][hPhe(3-Cl-4-CF3)]P))", "IC50": "> 500"}, {"smiles": "CC(C)C[C@H]1C(=O)N[C@@H](C(C)C)C(=O)N(C)CC(=O)N(C)CC(=O)N(C)[C@@H](CC2CCCCC2)C(=O)N(C)CC(=O)N[C@@H](CCc2ccc(C(F)(F)F)c(F)c2)C(=O)N2CCC[C@H]2C(=O)NC2(CCCC2)C(=O)N(C)[C@@H](CC(C)C)C(=O)N[C@H](C)CC(=O)N1C", "note": "[Compound 1493] (cyclo([Ac5c][NMeL][d(β3hA)][NMeL]V[Sar][Sar][NMeCha][Sar][hPhe(3-F,4-CF3)]P))", "IC50": "> 500"}, {"smiles": "CC[C@H](C)[C@@H]1NC(=O)[C@H](CC(C)C)N(CC)C(=O)C[C@@H](C(=O)N(C)C)N(C)C(=O)[C@H](C2CCCC2)N(C)C(=O)C2(CCCC2)NC(=O)[C@@H]2CCCN2C(=O)[C@H](CCc2ccc(C(F)(F)F)c(Cl)c2)NC(=O)CN(C)C(=O)[C@H](Cc2ccc(C)cc2)N(C)C(=O)[C@@H]2CCN2C(=O)[C@H](C)NC1=O", "note": "[Compound 1282] ([NEtLeu]IA[Aze][NMePhe(4-Me)][Sar][hPhe(3-Cl-4-CF3)]P[Ac5c][NMeGly(cPent)][NMeD]-NMe2; lactam N-11)", "IC50": "≤ 20"}, {"smiles": "CC[C@H](C)[C@@H]1NC(=O)[C@H](CC(C)C)N(C)C(=O)C[C@@H](C)NC(=O)[C@H](CC(C)C)N(C)C(=O)C2(CCCC2)NC(=O)[C@@H]2CCCN2C(=O)[C@H](CCc2ccc(S(F)(F)(F)(F)F)cc2)NC(=O)CN(C)C(=O)[C@H](CC2CCCCC2)N(C)C(=O)CN(C)C(=O)CN(C)C1=O", "note": "[Compound 1021] (cyclo([Ac5c][NMeL][d(β3hA)][NMeL]I[Sar][Sar][NMeCha][Sar][X115]P))", "IC50": "> 500"}, {"smiles": "CC[C@H](C)[C@@H]1NC(=O)[C@H](CC(C)C)N(C)C(=O)C[C@@H](C(=O)N2C3CCC2COC3)N(C)C(=O)[C@H](C2CCCC2)N(C)C(=O)C2(CCCC2)NC(=O)[C@@H]2CCCN2C(=O)[C@H](CCc2ccc(C(F)(F)F)c(F)c2)NC(=O)CN(C)C(=O)[C@H](CC2CCCCC2)N(C)C(=O)[C@@H]2CCN2C(=O)[C@H](C)N(C)C1=O", "note": "[Compound 734] ([NMeL]I[NMeA][Aze][NMeCha][Sar][hPhe(3-F,4-CF3)]P[Ac5c][NMeGly(cPent)][NMeD]-{3Oxa8azabicyclo(3.2.1)octane}; lactam N-11)", "IC50": "≤ 20"}]}]}
